According to PMC10935294, “Biodirected Screening and Preparation of Larimichthys crocea Angiotensin-I-Converting Enzyme-Inhibitory Peptides by a Combined In Vitro and In Silico Approach” (Molecules, 2024):
Where two headings read alike, the source gives them in different places. No end group written: not given here.

Experiments:
ACE [1] = biological target: T1, ACE (Oryctolagus cuniculus, UniProt P12822); conditions: cited from earlier work
T1 sequence (P12822 34-1310): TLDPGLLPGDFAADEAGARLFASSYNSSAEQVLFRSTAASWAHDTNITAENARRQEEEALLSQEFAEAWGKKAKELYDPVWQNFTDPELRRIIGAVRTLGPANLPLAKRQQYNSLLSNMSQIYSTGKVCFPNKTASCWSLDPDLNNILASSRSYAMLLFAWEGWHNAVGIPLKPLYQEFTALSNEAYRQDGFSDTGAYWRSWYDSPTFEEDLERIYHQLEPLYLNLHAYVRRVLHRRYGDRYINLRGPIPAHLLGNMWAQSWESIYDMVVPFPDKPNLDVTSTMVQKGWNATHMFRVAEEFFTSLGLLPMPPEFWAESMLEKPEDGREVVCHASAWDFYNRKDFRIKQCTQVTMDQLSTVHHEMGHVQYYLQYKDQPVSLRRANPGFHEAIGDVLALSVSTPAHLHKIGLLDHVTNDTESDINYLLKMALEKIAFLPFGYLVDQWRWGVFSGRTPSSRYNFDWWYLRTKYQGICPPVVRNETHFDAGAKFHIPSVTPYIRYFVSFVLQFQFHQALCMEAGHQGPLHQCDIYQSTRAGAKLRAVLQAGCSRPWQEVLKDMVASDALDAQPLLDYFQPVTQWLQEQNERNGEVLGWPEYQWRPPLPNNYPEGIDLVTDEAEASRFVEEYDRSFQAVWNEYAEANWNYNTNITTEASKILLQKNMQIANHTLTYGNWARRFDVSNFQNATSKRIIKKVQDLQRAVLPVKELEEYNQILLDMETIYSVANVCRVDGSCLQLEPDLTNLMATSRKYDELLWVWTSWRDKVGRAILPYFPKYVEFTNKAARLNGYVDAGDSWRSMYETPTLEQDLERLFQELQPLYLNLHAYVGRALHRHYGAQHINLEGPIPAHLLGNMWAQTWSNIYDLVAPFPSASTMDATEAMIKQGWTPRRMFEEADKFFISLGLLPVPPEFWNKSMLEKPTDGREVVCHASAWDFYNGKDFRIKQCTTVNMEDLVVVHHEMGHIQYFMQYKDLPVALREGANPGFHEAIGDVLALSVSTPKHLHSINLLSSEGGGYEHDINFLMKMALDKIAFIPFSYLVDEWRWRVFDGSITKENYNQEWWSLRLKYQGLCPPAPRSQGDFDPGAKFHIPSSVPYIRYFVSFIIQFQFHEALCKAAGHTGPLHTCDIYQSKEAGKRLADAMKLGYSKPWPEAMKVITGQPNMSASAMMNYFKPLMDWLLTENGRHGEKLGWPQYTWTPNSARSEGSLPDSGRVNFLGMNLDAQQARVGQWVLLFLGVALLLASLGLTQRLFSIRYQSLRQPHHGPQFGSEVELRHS

ACE [2] = biological target: T1, ACE; assay: ACE-inhibitory activity after simulated in vitro gastrointestinal digestion (pepsin, trypsin); type: biochemical; conditions: pepsin pH 2, 2 h, then trypsin pH 7.5, 2 h, 37 °C; mean ± SD
Description: (§1) The methods were previously established in our laboratory. […] Then, 60 μL of peptide samples (1 mg/mL) and 20 μL of ACE solution (0.1 U/mL) were placed in a 37 °C water bath for 10 min, and 50 μL of hippuryl-histidyl-leucine (HHL) solution (1 mM) was added to react for 60 min. Finally, the reaction was terminated by adding 1 M HCL (100 μL). The sample solution of the determination group was replaced by 60 μL boric acid buffer solution (pH = 8.3 0.3 M NaCl) in the control tube. Then, 10 μL boric acid buffer was put into the blank control tube instead of the ACE solution used in the control group. Column chromatography conditions were as follows: Waters-C18, 5 μm, 4.6 mm × 250 mm; detection wavelength: 228 nm; mobile phase: 80% A: 0.1% formic acid + 0.1% trifluoroacetic acid + 98% deionized water, 20% B: 100% acetonitrile; flow rate: 0.8 mL/min; column temperature: 30 °C; injection volume: 10 μL. The ACE-inhibition rate was calculated by Formula (1):(1) ACEinhibitoryrate%=(HAc−HAs)/([HA]c−[HA]H)×100% where HA is the concentration of hippuric acid, [HA]c is the concentration of HA in the control sample, [HA]s is the sample HA concentration, and [HA]H is the blank control HA concentration. The IC50 value was defined as the inhibitor concentration inhibiting 50% of ACE activity. First, the in vitro ACE inhibition rate was determined for samples of different concentrations. Then, the fitting curve and equation were drawn with the sample mass concentration as abscissa and ACE inhibition rate as ordinate. The value of IC50 was calculated according to the fitted curve.
A slight modification of the research methodology based on the previous study was implemented. With slight modification, the peptide samples were dissolved in deionized water (1 mg/mL), adjusted the pH to 2 with 1 M HCl, pepsin (2% w/w) was added, and the reaction was run for 2 h at 37 °C in the temperature shaker. The reaction was adjusted to pH = 7.5 with 2 M NaOH, and trypsin (2% w/w) was added for 2 h. Then, it was placed in boiling water at 100 °C for 10 min and finally removed to wait for the temperature to decrease to room temperature and centrifuged to detect their ACE activity.

ACE [3] = biological target: T1, ACE; assay: ACE-inhibitory activity (HHL substrate, HPLC determination of hippuric acid); type: biochemical; conditions: synthetic peptides, n = 3, mean ± SD; read-out: IC50 value before digestion
Description: as §1

Row | IC50 (ACE [2]) [µM] | IC50 (ACE [3]) [µM] | Substance | further results
1 | 11.4 ± 0.43 | 10.3 ± 0.21 | FYEPFM [FYEPFM, Phe-Tyr-Glu-Pro-Phe-Met] | 
2 | 33.73 ± 0.23 | 5.34 ± 0.15 | IHFGTTGK [IHFGTTGK, Ile-His-Phe-Gly-Thr-Thr-Gly-Lys] | 
3 | 15.65 ± 0.15 | 6.53 ± 0.21 | INEMLDTK [INEMLDTK, Ile-Asn-Glu-Met-Leu-Asp-Try-Lys] | 
4 | 0.8 ± 0.08 | 0.63 ± 0.09 | IPYADFK [IPYADFK, Ile-Pro-Tyr-Ala-Asp-Phe-Lys] | 
5 | 24.3 ± 0.29 | 9.41 ± 0.24 | LYDHLGK [LYDHLGK, Leu-Tyr-Asp-His-Leu-Gly-Lys] | 
6 | 7.27 ± 0.17 | 6.23 ± 0.34 | NWPWMK [NWPWMK, Asn-Trp-Pro-Trp-Met-Lys] | 

Further lines, the substance ahead of its results:

Row | Substance | IC50 (ACE [2]) [µM] | IC50 (ACE [3]) [µM] | further results
7 | FDGSPVGY |  |  | Form of ACE inhibition (ACE [1]): competitively combine with the center site of ACE
8 | Tyr-Asn-Leu [YNL] |  |  | Reported activity (ACE [1]): ACE-inhibitory activity
9 | VFDGVLRPGQ |  |  | Form of ACE inhibition (ACE [1]): non-competitive inhibition
10 | VGLFPSRSF |  |  | Form of ACE inhibition (ACE [1]; peptide from tilapia skin): non-competitive inhibition
11 | VVLASLK |  |  | IC50 (ACE [1]; peptides from Pacific saury): 962 µM
